# Source: ChEMBL document CHEMBL1909046, “DrugMatrix in vitro pharmacology data”
# *1 amine or outer side, *2 acyl side, *3 side chain or, on linkers, in order; H or OH if unused. Where a SMILES comes first, the peptide text is derived from it. Bridges are numbered along the chain shown (N, C = ends). Roman numbers before positions name the chains, in order. [ ]: non-standard residue; d: D form. Actinocin(1to9) = Cc1c2oc3c(C)ccc(C(=O)[*:2])c3nc-2c(C(=O)[*:1])c(N)c1=O; NMeV = CN[C@H](C(=O)O)C(C)C; Sar = CNCC(=O)O
# Assays:
# [1] = biological target: T1, Neuropeptide Y receptor type 1 (Homo sapiens, UniProt P25929); type: cell membranes, Membrane; conditions: sk-n-mc; note: in other assays of this panel Not Active means under 50% inhibition at 10 µM
# T1 sequence (P25929 whole entry): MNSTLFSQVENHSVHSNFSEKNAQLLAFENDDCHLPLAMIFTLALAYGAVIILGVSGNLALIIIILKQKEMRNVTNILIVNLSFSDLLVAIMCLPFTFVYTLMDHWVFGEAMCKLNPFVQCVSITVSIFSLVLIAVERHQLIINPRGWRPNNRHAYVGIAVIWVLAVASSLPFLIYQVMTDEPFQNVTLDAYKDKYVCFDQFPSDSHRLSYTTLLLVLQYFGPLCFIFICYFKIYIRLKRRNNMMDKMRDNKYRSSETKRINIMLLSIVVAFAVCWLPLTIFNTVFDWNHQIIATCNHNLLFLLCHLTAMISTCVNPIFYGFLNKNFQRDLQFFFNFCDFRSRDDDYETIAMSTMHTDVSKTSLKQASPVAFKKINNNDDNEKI
# [2] = biological target: Sodium-dependent noradrenaline transporter (Homo sapiens, UniProt P23975); experiment: DRUGMATRIX: Norepinephrine Transporter radioligand binding (ligand: [125I] RTI-55); type: cell membranes, MDCK, Membrane; conditions: Not Active = under 50% inhibition at 10 µM; for Ki: read-out: Ki
# [3] = biological target: T2, Receptor-type tyrosine-protein phosphatase C (Homo sapiens, UniProt P08575); design: species or system Escherichia coli;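 note: inhibition of CD45 enzyme activity measured using DiFMUP as substrate; in other assays of this panel Not Active means under 50% inhibition at 10 µM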
# T2 sequence (P08575 whole entry): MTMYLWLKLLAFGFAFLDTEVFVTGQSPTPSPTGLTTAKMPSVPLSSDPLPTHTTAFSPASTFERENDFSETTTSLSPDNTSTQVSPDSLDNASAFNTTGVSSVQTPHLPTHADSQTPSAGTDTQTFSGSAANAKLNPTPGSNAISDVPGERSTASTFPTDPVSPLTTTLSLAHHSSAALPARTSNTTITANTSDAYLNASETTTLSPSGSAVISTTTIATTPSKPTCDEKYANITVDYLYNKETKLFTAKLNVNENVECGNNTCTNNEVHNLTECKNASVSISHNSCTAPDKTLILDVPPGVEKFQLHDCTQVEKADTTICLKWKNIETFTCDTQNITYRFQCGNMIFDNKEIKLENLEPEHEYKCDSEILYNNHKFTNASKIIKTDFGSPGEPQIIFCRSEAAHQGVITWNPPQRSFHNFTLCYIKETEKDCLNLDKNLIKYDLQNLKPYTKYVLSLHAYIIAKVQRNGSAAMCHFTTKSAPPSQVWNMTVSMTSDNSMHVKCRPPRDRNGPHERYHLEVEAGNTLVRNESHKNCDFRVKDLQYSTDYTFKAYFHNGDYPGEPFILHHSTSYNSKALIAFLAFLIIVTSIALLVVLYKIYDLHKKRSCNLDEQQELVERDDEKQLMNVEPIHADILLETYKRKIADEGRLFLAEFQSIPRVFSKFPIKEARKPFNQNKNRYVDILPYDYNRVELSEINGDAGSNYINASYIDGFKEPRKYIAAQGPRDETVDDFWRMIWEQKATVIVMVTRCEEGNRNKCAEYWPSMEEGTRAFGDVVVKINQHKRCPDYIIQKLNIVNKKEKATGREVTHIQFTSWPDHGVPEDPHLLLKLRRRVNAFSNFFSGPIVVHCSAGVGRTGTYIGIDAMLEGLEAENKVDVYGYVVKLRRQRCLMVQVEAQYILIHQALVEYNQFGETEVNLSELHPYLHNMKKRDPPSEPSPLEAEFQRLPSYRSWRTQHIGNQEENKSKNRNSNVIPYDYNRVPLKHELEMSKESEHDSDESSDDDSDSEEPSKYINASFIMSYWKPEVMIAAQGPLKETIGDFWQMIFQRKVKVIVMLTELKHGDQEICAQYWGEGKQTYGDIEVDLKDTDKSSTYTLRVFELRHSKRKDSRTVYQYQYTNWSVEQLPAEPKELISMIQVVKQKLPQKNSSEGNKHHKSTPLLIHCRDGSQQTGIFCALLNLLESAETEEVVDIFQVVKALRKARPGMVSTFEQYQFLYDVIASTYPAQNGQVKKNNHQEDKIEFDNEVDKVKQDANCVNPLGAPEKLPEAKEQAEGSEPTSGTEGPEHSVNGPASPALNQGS
# [4] = DRUGMATRIX: Imidazoline I2, Central radioligand binding (ligand: [3H] Idazoxan); type: cell membranes, Rattus norvegicus, Wistar, Cerebral cortex, Membrane; conditions: Not Active = under 50% inhibition at 10 µM
# [5] = biological target: Matrix metalloproteinase-9 (Homo sapiens, UniProt P14780); experiment: biochemical; type: cell-based;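 note: inhibition of isolated MMP-9 enzyme activity toward a synthetic peptide substrate, from the DrugMatrix protease screening panel; in other assays of this panel Not Active means under 50% inhibition at 10 µM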
# [6] = biological target: Mitogen-activated protein kinase 1 (Homo sapiens, UniProt P28482); experiment: DRUGMATRIX: Protein Serine/Threonine Kinase, ERK2 enzyme inhibition (substrate: Myelin Basic Protein); design: species or system Escherichia coli; conditions: Not Active = under 50% inhibition at 10 µM
# B2 bradykinin receptor = biological target: T3, B2 bradykinin receptor (Homo sapiens, UniProt P30411); type: cell membranes, Membrane; conditions: chem-1; note: in other assays of this panel Not Active means under 50% inhibition at 10 µM
# T3 sequence (P30411 whole entry): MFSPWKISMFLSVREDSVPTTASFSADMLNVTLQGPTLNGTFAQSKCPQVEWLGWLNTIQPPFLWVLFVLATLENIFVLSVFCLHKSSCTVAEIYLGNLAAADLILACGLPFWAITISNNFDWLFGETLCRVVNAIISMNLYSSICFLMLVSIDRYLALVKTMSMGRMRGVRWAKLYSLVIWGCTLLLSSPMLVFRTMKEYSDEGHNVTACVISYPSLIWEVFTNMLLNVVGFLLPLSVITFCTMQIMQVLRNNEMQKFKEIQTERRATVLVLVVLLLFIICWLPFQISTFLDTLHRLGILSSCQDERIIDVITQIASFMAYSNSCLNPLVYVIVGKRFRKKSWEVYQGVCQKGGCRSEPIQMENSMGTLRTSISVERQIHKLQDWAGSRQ
# Sodium-dependent noradrenaline transporter, sequence (P23975 whole entry): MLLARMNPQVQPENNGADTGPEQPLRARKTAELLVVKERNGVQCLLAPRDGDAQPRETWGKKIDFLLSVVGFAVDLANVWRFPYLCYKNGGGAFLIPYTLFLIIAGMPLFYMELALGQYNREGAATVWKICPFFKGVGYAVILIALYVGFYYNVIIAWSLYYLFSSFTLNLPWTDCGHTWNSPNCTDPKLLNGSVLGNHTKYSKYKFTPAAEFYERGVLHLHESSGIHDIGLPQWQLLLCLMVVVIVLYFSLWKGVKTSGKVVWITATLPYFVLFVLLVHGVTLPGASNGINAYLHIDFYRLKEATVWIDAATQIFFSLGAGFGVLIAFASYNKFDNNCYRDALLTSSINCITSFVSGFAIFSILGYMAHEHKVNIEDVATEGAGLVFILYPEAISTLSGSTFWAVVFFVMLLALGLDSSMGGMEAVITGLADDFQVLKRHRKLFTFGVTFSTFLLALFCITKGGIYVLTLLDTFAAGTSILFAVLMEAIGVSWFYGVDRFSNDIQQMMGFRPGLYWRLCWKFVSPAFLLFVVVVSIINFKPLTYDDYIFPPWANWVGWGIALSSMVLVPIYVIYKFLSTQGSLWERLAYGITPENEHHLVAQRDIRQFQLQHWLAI
# Mitogen-activated protein kinase 1, sequence (P28482 whole entry): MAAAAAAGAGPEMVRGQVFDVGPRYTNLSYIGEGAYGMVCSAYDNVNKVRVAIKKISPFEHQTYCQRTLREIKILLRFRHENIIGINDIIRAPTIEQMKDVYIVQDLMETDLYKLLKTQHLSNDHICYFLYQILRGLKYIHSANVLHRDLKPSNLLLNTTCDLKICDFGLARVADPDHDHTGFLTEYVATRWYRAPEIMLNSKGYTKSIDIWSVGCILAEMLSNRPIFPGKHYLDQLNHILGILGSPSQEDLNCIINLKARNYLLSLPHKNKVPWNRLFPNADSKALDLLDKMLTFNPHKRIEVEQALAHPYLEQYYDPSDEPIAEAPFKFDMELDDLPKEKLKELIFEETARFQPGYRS
# Matrix metalloproteinase-9, sequence (P14780 whole entry): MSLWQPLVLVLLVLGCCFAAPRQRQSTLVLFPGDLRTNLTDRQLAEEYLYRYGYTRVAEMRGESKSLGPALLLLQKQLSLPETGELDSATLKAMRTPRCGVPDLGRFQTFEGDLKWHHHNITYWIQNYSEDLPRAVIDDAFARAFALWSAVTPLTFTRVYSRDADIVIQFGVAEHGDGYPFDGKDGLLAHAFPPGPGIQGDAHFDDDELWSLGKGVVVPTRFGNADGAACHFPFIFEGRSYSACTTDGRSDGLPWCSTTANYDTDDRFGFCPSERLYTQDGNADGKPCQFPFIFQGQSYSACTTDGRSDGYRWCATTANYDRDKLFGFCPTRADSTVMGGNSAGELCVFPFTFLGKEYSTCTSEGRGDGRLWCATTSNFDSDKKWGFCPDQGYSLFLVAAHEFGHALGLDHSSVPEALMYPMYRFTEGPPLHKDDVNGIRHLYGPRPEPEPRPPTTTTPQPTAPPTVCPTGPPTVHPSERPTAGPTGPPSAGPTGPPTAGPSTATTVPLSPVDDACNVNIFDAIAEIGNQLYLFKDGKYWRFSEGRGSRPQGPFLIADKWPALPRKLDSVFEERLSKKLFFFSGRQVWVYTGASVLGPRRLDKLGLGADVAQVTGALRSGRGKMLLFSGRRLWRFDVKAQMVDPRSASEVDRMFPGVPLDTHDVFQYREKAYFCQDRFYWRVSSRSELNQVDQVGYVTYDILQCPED
Structure (SMILES),IC50 [1],IC50 ([2]; mdck),IC50 [3],IC50 [4],Ki [4],IC50 [5],IC50 [6],IC50 (B2 bradykinin receptor),IC50 ([5]; read-out: IC50) [µM],IC50 ([2]; read-out: IC50) [µM],Ki [2] [µM],IC50 ([4]; read-out: IC50) [µM],Ki ([4]; read-out: Ki) [µM],IC50 ([6]; read-out: IC50) [µM]
CNCCc1ccccn1 [BETAHISTINE],Not Active,Not Active,Not Active,Not Active,Not Active,Not Active,Not Active,Not Active,–,–,–,–,–,–
CC(C)C(Br)C(=O)NC(N)=O (configuration not stated) [BROMISOVALUM],Not Active,Not Active,Not Active,Not Active,Not Active,Not Active,Not Active,Not Active,–,–,–,–,–,–
CCCC1O[C@@H]2C[C@H]3[C@@H]4CCC5=CC(=O)C=C[C@]5(C)[C@H]4[C@@H](O)C[C@]3(C)[C@]2(C(=O)CO)O1 (some centres not stated) [BUDESONIDE],Not Active,Not Active,Not Active,Not Active,Not Active,–,Not Active,Not Active,1.99,–,–,–,–,–
CC(NC(C)(C)C)C(=O)c1cccc(Cl)c1 (configuration not stated) [BUPROPION],Not Active,Not Active,Not Active,Not Active,Not Active,Not Active,Not Active,Not Active,–,–,–,–,–,–
CN(Cc1ccc(C(C)(C)C)cc1)Cc1cccc2ccccc12 [BUTENAFINE],Not Active,–,Not Active,Not Active,Not Active,Not Active,Not Active,Not Active,–,3.91,3.88,–,–,–
C[C@H](CS)C(=O)N1CCC[C@H]1C(=O)O [CAPTOPRIL],Not Active,Not Active,Not Active,Not Active,Not Active,Not Active,Not Active,Not Active,–,–,–,–,–,–
Cc1ccc(-c2cc(C(F)(F)F)nn2-c2ccc(S(N)(=O)=O)cc2)cc1 [CELECOXIB],Not Active,–,Not Active,Not Active,Not Active,Not Active,Not Active,Not Active,–,7.31,7.25,–,–,–
O=C(O)CCCc1ccc(N(CCCl)CCCl)cc1 [CHLORAMBUCIL],Not Active,Not Active,Not Active,Not Active,Not Active,Not Active,Not Active,Not Active,–,–,–,–,–,–
C[C@H](CCC(=O)O)[C@H]1CC[C@H]2[C@@H]3[C@H](O)C[C@@H]4C[C@H](O)CC[C@]4(C)[C@H]3C[C@H](O)[C@]12C [CHOLIC ACID],Not Active,Not Active,Not Active,Not Active,Not Active,Not Active,Not Active,Not Active,–,–,–,–,–,–
Cc1cc(C2CCCCC2)n(O)c(=O)c1 [CICLOPIROX],Not Active,Not Active,Not Active,Not Active,Not Active,Not Active,Not Active,Not Active,–,–,–,–,–,–
CC1=C2C(=CO[C@H](C)[C@H]2C)C(O)=C(C(=O)O)C1=O [CITRININ],Not Active,Not Active,Not Active,Not Active,Not Active,Not Active,Not Active,Not Active,–,–,–,–,–,–
CC(C)(C)NCC(O)c1cc(Cl)c(N)c(Cl)c1 (configuration not stated) [CLENBUTEROL],Not Active,Not Active,Not Active,Not Active,Not Active,Not Active,Not Active,Not Active,–,–,–,–,–,–
CC(C)(Oc1ccc(Cl)cc1)C(=O)O [CLOFIBRIC ACID],Not Active,Not Active,Not Active,Not Active,Not Active,Not Active,Not Active,Not Active,–,–,–,–,–,–
Clc1cccc(Cl)c1NC1=NCCN1 [CLONIDINE],Not Active,Not Active,Not Active,–,–,Not Active,Not Active,Not Active,–,–,–,0.064,0.043,–
Cc1cc(C(C#N)c2ccc(Cl)cc2)c(Cl)cc1NC(=O)c1cc(I)cc(I)c1O (configuration not stated) [CLOSANTEL],Not Active,Not Active,Not Active,Not Active,Not Active,Not Active,–,Not Active,–,–,–,–,–,1.43
Cc1onc(-c2ccccc2Cl)c1C(=O)N[C@@H]1C(=O)N2[C@@H]1SC(C)(C)[C@@H]2C(=O)O [CLOXACILLIN],Not Active,Not Active,Not Active,Not Active,Not Active,Not Active,Not Active,Not Active,–,–,–,–,–,–
CC1CC(OC(=O)C(O)c2ccccc2)CC(C)(C)C1 (configuration not stated) [CYCLANDELATE],Not Active,Not Active,Not Active,Not Active,Not Active,Not Active,Not Active,Not Active,–,–,–,–,–,–
"Cc1c2oc3c(C)ccc(C(=O)N[C@@H]4C(=O)N[C@H](C(C)C)C(=O)N5CCC[C@H]5C(=O)N(C)CC(=O)N(C)[C@@H](C(C)C)C(=O)O[C@@H]4C)c3nc-2c(C(=O)N[C@@H]2C(=O)N[C@H](C(C)C)C(=O)N3CCC[C@H]3C(=O)N(C)CC(=O)N(C)[C@@H](C(C)C)C(=O)O[C@@H]2C)c(N)c1=O [DACTINOMYCIN] (I: T[dV]P[Sar][NMeV] / II: T[dV]P[Sar][NMeV]; ester I:1-I:C, II:1-II:C; linker I:N-II:N via Actinocin(1to9))",Not Active,Not Active,Not Active,Not Active,Not Active,Not Active,Not Active,Not Active,–,–,–,–,–,–
Cc1c(O)c(=O)ccn1C [DEFERIPRONE],Not Active,Not Active,Not Active,Not Active,Not Active,Not Active,Not Active,Not Active,–,–,–,–,–,–
O=c1oc2ccccc2c(O)c1Cc1c(O)c2ccccc2oc1=O [DICUMAROL],Not Active,Not Active,Not Active,Not Active,Not Active,Not Active,–,Not Active,–,–,–,–,–,4.43
